Experimental findings from patent US20060019994A1, “I-sulphonlyl piperidine derivatives” (priority 2002, published 2006) are described below.

In this experiment the target is T1, proTNF-α convertase enzyme (TACE) (Homo sapiens, UniProt P78536).
T1 construct: a partially purified, isolated enzyme assay, the enzyme being obtained from the membranes of THP-1; endogenous in cells; host or cells: THP-1 cell membranes, partially purified
The experiment can be described thus: Isolated enzyme assay, proTNF-α convertase (TACE), partially purified enzyme from membranes of THP-1, fluorescent peptide substrate. It is filed as biochemical. The settings on record: 26° C. for 4 hours, read-out: concentration causing 50% inhibition of TACE. How it is done: Recombinant human proMMP13 may be expressed and purified as described by Knauper et al. [V. Knauper et al., (1996) The Biochemical Journal 271:1544-1550 (1996)]. […] Activity is determined by measuring the fluorescence at λex 328 nm and λem 393 nm. Percent inhibition is calculated as follows: % Inhibition is equal to the [Fluorescenceplus inhibitor-Fluorescencebackground] divided by the [Fluorescenceminus inhibitor-Fluorescencebackground].
The ability of the compounds to inhibit proTNF-α convertase enzyme (TACE) may be assessed using a partially purified, isolated enzyme assay, the enzyme being obtained from the membranes of THP-1 as described by K. M. Mohler et al., (1994) Nature 370:218-220. The purified enzyme activity and inhibition thereof is determined by incubating the partially purified enzyme in the presence or absence of test compounds using the substrate 4′,5′-Dimethoxy-fluoresceinyl Ser.Pro.Leu.Ala.Gln.Ala.Val.Arg.Ser.Ser.Ser.Arg.Cys(4-(3-succinimid-1-yl)-fluorescein)-NH2 in assay buffer (50 mM Tris HCl, pH 7.4 containing 0.1% (w/v) Triton X-100 and 2 mM CaCl2), at 26° C. for 4 hours. The amount of inhibition is determined as for MMP13 except λex 485 nm and λem 538 nm were used. […]

Molecules are shown by their SMILES.

T1 sequence (P78536 215-824): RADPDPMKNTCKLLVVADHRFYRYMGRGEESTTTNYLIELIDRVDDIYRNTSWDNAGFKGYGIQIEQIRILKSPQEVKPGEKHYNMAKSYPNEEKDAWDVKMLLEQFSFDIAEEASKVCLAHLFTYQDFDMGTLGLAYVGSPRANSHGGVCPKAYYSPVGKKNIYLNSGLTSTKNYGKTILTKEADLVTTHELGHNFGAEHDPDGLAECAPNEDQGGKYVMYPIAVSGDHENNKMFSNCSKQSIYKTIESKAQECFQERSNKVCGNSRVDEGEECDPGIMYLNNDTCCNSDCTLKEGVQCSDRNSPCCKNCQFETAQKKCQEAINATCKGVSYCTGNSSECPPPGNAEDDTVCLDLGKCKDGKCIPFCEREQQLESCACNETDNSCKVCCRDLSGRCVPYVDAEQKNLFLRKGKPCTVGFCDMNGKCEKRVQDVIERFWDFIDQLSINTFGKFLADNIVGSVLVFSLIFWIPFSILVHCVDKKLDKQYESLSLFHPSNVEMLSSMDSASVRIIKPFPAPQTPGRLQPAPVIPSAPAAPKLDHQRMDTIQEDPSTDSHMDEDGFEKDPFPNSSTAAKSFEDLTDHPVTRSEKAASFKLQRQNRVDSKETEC

For `Cc1cc(COC2CCN(S(=O)(=O)CCC3NC(=O)NC3=O)CC2)c2ccccc2n1` (stereo not shown) [Example 3, 5-[2-({4-[(2-Methylquinolin-4-yl)methoxy]piperidin-1-yl}sulphonyl)ethyl]imidazolidine-2,4-dione], the IC50 was 630 nM.
